Literature values, collected in patent US6288110A, “Pharmaceutical compositions comprising disulfiram” (Yeda Research and Development Co Ltd., priority 1998, dated 2001).

Conditions: non-enzymatic degradation; cited from earlier work

In the case of CCN(CC)C(=S)S [DDC, diethyldithiocarbamate], the “further metabolism of DDC” value is given as “non-enzymatic degradation to diethylamine (DEA)”.
